Source: ChEMBL document CHEMBL1201862, “PubChem BioAssay data set” (2004)
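Following 48 hours of exposure in 96-well plates, responses at five concentrations were used to interpolate endpoints linearly. GI50 marks 50% less growth.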 Activity calls are given as the source filed them. Cut-off read from the data, not from the text of the source: active = GI50 up to about 1.1 µM and inactive = higher.

Columns and labels:
Assay in all cases: NCI-60 cell line screen, 48 h
UACC-257 = test system: UACC-257
LOX IMVI = test system: LOX IMVI
A549 = test system: A549
RPMI-8226 = test system: RPMI-8226
Malme-3M = test system: Malme-3M
A498 = test system: A498
UACC-62 = test system: UACC-62
SNB-75 = test system: SNB-75
OVCAR-8 = test system: OVCAR-8
SW-620 = test system: SW-620
SF-268 = test system: SF-268
HCT-116 = test system: HCT-116
DLD-1 = test system: DLD-1
HOP-62 = test system: HOP-62
KM12 = test system: KM12
SNB-19 = test system: SNB-19
SF-295 = test system: SF-295
HOP-18 = test system: HOP-18
IGROV-1 = test system: IGROV-1
TK-10 = test system: TK-10
SK-MEL-5 = test system: SK-MEL-5
SF-539 = test system: SF-539
RXF 631 = test system: RXF 631
M19-MEL = test system: M19-MEL
NCI-H522 = test system: NCI-H522
SK-OV-3 = test system: SK-OV-3
XF498 = test system: XF498
HT-29 = test system: HT-29
UO-31 = test system: UO-31
OVCAR-4 = test system: OVCAR-4
OVCAR-3 = test system: OVCAR-3
ACHN = test system: ACHN
SK-MEL-28 = test system: SK-MEL-28
786-0 = test system: 786-0
HCC 2998 = test system: HCC 2998
HOP-92 = test system: HOP-92
SNB-78 = test system: SNB-78
DMS-273 = test system: DMS-273
SN12C = test system: SN12C
DMS-114 = test system: DMS-114
CAKI-1 = test system: CAKI-1
COLO 205 = test system: COLO 205
MOLT-4 = test system: MOLT-4
EKVX = test system: EKVX
SR = test system: SR
NCI-H226 = test system: NCI-H226
LXFL 529 = test system: LXFL 529
NCI-H23 = test system: NCI-H23
U-251 = test system: U-251
M14 = test system: M14
CCRF-CEM = test system: CCRF-CEM
HL-60 = test system: HL-60
OVCAR-5 = test system: OVCAR-5
RXF 393 = test system: RXF 393
K562 = test system: K562

Measured: GI50

COc1cccc(NC(=O)CC(=O)n2nc(C)c(/N=N/c3ccccc3)c2C)c1
inactive: UACC-257 > 100 µM | LOX IMVI 83.6 µM | A549 > 100 µM | RPMI-8226 > 100 µM | Malme-3M > 100 µM | A498 76 µM | UACC-62 79.1 µM | SNB-75 47.8 µM | OVCAR-8 > 100 µM | SW-620 > 100 µM | SF-268 > 100 µM | HCT-116 > 100 µM | DLD-1 > 100 µM | HOP-62 > 100 µM | KM12 > 100 µM | SNB-19 > 100 µM | SF-295 > 100 µM | HOP-18 12 µM | IGROV-1 > 100 µM | TK-10 85.7 µM | SK-MEL-5 76.4 µM | SF-539 > 100 µM | RXF 631 > 100 µM | M19-MEL > 100 µM | NCI-H522 > 100 µM | SK-OV-3 > 100 µM | XF498 56.9 µM | HT-29 > 100 µM | UO-31 65.6 µM | OVCAR-4 > 100 µM | OVCAR-3 > 100 µM | ACHN > 100 µM | SK-MEL-28 > 100 µM | 786-0 > 100 µM | HCC 2998 > 100 µM | HOP-92 > 100 µM | SNB-78 > 100 µM | DMS-273 > 100 µM | SN12C > 100 µM | DMS-114 > 100 µM | CAKI-1 > 100 µM | COLO 205 > 100 µM | MOLT-4 69.2 µM | EKVX 58.6 µM | SR 78.7 µM | NCI-H226 28.5 µM | LXFL 529 > 100 µM | NCI-H23 > 100 µM | U-251 > 100 µM | M14 > 100 µM

O=C1C(c2ccccc2)=[N+]([O-])c2cc([N+](=O)[O-])c(/C(Cl)=C/c3ccccc3)cc21
inactive: LOX IMVI 13.7 µM | A549 40.1 µM | RPMI-8226 13.9 µM | UACC-62 30.6 µM | SNB-75 31.4 µM | OVCAR-8 16.1 µM | SW-620 17.3 µM | SF-268 35.2 µM | CCRF-CEM 10.5 µM | DLD-1 14.2 µM | KM12 22.8 µM | HL-60 4.06 µM | SNB-19 31.3 µM | SF-295 53.3 µM | HOP-18 24.1 µM | IGROV-1 23.2 µM | TK-10 33.7 µM | SK-MEL-5 20.4 µM | SF-539 23.8 µM | RXF 631 6.7 µM | M19-MEL 15.3 µM | SK-OV-3 > 100 µM | HT-29 22.3 µM | OVCAR-5 31.2 µM | UO-31 41.8 µM | RXF 393 22.9 µM | OVCAR-4 13.1 µM | OVCAR-3 13.5 µM | ACHN 24.5 µM | K562 13.8 µM | SK-MEL-28 27.4 µM | 786-0 29.9 µM | SNB-78 29.4 µM | DMS-273 18.1 µM | DMS-114 8.97 µM | COLO 205 17.3 µM | MOLT-4 13.9 µM | EKVX 25.7 µM | SR 17.9 µM | NCI-H226 31.2 µM | LXFL 529 > 10 µM | NCI-H23 22.7 µM | U-251 18.6 µM | M14 16 µM
